Legend:
[1] = target: T1, human 15-PGDH (Homo sapiens, UniProt P15428); assay: Evaluation of 15-PGDH inhibitory activity (fluorescence enzyme assay, NAD+/PGE2); type: biochemical; conditions: human 15-PGDH enzyme, fluorescence Vmax
T1 construct: purchased R&D System 5660-DH
T1 sequence (P15428 1-266): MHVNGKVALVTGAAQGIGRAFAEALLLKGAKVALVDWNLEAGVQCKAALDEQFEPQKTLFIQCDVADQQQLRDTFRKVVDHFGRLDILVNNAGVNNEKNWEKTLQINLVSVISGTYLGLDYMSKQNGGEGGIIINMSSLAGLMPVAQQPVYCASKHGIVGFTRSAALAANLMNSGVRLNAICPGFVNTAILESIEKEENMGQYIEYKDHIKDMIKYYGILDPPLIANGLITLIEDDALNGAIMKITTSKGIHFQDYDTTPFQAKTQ
Procedure: 15-PGDH inhibition activity of Example compounds was measured as follows. 6.7 ng of human 15-PGDH (R&D System# 5660-DH) enzyme (10 µL) was added to a black 96 well plate, 60 µL of buffer (50 mM Tris-HCl, pH 7.5, 0.01% Tween 20) was added, and 10 µL of 200 µM β-Nicotinamide adenine dinucleotide sodium salt (Sigma, Cat# N0632-5G) was added. 10 µL of (10x) compound solution in DMSO was added and reacted for 10 minutes at room temperature.

[2] = tested on: A549 cells; assay: Measurement of PGE2-increasing activity in A549 cells (IL-1β stimulated, PGE2 quantified in supernatant); type: cell-based; conditions: Homo sapiens, 24 h; concentration of 1 µM of each compound; IL-1β treated A549 cells; read-out: Increased PGE2 production in A549 cells
Method in brief: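 A549 cells grown 24 h in F12K with 10% FBS, then switched to serum-free medium with or without IL-1β and compound (0.1% DMSO final). After 24 h at 37 °C, 5% CO2, supernatant PGE2 quantified by immunoassay.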

Compound | IC50 [1] [nM] | fold induction at 1 µM [2]
NC(=O)c1ncc(-c2ccc(-c3cccc4c(C(=O)N5CCCCC5)cnn34)cc2)cn1 [Example 307, 5-[4-[3-(piperidine-1-carbonyl)pyrazolo[1,5-a]pyridin-7-yl]phenyl]pyrimidine-2-carboxamide] | ≤ 100 | > 1.5
CN1CCC(C(=O)Nc2cccc(-c3cccc4c(C(=O)N5CCCCC5)cnn34)c2)CC1 [Example 93, 1-methyl-N-(3-(3-(piperidine-1-carbonyl)pyrazolo[1,5-a]pyridin-7-yl)phenyl)piperidine-4-carboxamide] | ≤ 100 | > 1.5
O=C(c1cnn2c(NCc3ncccn3)cccc12)N1CCCCC1 [Example 148, piperidin-1-yl(7-((pyrimidin-2-ylmethyl)amino)pyrazolo[1,5-a]pyridin-3-yl)methanone] | ≤ 100 | > 1.5
CN1CCN(c2ccc(-c3cccc4c(C(=O)N5CCCCC5)cnn34)cn2)CC1 [Example 111, (7-(6-(4-methylpiperazin-1-yl)pyridin-3-yl)pyrazolo[1,5-a]pyridin-3-yl)(piperidin-1-yl)methanone] | ≤ 100 | > 1.5
O=C(Nc1cccnc1)c1cccc(-c2cccc3c(C(=O)N4CCCCC4)cnn23)c1 [Example 37, 3-(3-(piperidine-1-carbonyl)pyrazolo[1,5-a]pyridin-7-yl)-N-(pyridin-3-yl)benzamide] | ≤ 100 | > 1.5
Cn1nccc1-c1cc(-c2cccc3c(C(=O)N4CCCCC4)cnn23)cc(N2CCOCC2)n1 [Example 369, (7-(2-(1-methyl-1H-pyrazol-5-yl)-6-morpholinopyridin-4-yl)pyrazolo[1,5-a]pyridin-3-yl)(piperidin-1-yl)methanone] | ≤ 100 | > 1.5
COCCC(=O)Nc1cncc(-c2cccc3c(C(=O)N4CCCCC4)cnn23)c1 [Example 197] | ≤ 100 | > 1.5
COCCNC(=O)c1ccc(-c2cccc3c(C(=O)N4CCCCC4)cnn23)cn1 [Example 78, N-(2-methoxyethyl)-5-(3-(piperidine-1-carbonyl)pyrazolo[1,5-a]pyridin-7-yl)picolinamide] | ≤ 100 | > 1.5

More lines, main results first:

IC50 [1] [nM] | Compound | fold induction at 1 µM [2]
≤ 100 | O=C(c1cnn2c(-c3ccc(-c4n[nH]c(=S)o4)nc3)cccc12)N1CCCCC1 [Example 365, 1-piperidyl-[7-[6-(2-thioxo-3H-1,3,4-oxadiazol-5-yl)-3-pyridyl]pyrazolo[1,5-a]pyridin-3-yl]methanone] | > 1.5
≤ 100 | O=C(c1cnn2c(-c3cc(-c4cnoc4)nc(N4CCOCC4)c3)cccc12)N1CCCCC1 [Example 366, (7-(2-(isoxazol-4-yl)-6-morpholinopyridin-4-yl)pyrazolo[1,5-a]pyridin-3-yl)(piperidin-1-yl)methanone] | > 1.5
≤ 100 | CN(C)C1CN(c2ccc(-c3cccc4c(C(=O)N5CCCCC5)cnn34)cn2)C1 [Example 218, (7-(6-(3-(dimethylamino)azetidin-1-yl)pyridin-3-yl)pyrazolo[1,5-a]pyridin-3-yl)(piperidin-1-yl)methanone] | > 1.5
≤ 100 | O=C(c1cnn2c(-c3cc(F)c(-c4noc(=O)[nH]4)c(F)c3)cccc12)N1CCCCC1 [Example 331, 3-(2,6-difluoro-4-(3-(piperidine-1-carbonyl)pyrazolo[1,5-a]pyridin-7-yl)phenyl)-1,2,4-oxadiazol-5(4H)-one] | > 1.5
≤ 100 | Cn1nccc1-c1ccc(-c2cccc3c(C(=O)N4CCCCC4)cnn23)cc1 [Example 300, [7-[4-(2-methylpyrazol-3-yl)phenyl]pyrazolo[1,5-a]pyridin-3-yl]-(1-piperidyl)methanone] | < 1.5
≤ 100 | O=C(c1cncc(-c2cccc3c(C(=O)N4CCCCC4)cnn23)c1)N1CCOCC1 [Example 39, (7-(5-(morpholine-4-carbonyl)pyridin-3-yl)pyrazolo[1,5-a]pyridin-3-yl)(piperidin-1-yl)methanone] | < 1.5
≤ 100 | Cc1noc(C)c1-c1ccc(-c2cccc3c(C(=O)N4CCCCC4)cnn23)cc1 [Example 324, [7-[4-(3,5-dimethylisoxazol-4-yl)phenyl]pyrazolo[1,5-a]pyridin-3-yl]-(1-piperidyl)methanone] | > 1.5
≤ 100 | N#Cc1cccc(-c2cccc3c(C(=O)N4CCCCC4)cnn23)c1 [Example 6, 3-(3-(piperidine-1-carbonyl)pyrazolo[1,5-a]pyridin-7-yl)benzonitrile] | > 1.5

— patent EP4653437A2 (Innovo Therapeutics Inc., priority 2023, dated 2024)
